The source of these data is ChEMBL document CHEMBL1132032, “3-Acyloxy-2-phenalkylpropyl amides and esters of homovanillic acid as novel vanilloid receptor agonists” (Bioorg Med Chem Lett, 1999).

pKi: −log10 of the molar value. The source made the active and inactive calls. No cut-off for these calls is given here.

The target of test [1] is Transient receptor potential cation channel subfamily V member 1 (Rattus norvegicus, UniProt O35433). The test is described as follows: In vitro binding affinity towards vanilloid receptor by [3H]RTX displacement.
Transient receptor potential cation channel subfamily V member 1, sequence (O35433 whole entry): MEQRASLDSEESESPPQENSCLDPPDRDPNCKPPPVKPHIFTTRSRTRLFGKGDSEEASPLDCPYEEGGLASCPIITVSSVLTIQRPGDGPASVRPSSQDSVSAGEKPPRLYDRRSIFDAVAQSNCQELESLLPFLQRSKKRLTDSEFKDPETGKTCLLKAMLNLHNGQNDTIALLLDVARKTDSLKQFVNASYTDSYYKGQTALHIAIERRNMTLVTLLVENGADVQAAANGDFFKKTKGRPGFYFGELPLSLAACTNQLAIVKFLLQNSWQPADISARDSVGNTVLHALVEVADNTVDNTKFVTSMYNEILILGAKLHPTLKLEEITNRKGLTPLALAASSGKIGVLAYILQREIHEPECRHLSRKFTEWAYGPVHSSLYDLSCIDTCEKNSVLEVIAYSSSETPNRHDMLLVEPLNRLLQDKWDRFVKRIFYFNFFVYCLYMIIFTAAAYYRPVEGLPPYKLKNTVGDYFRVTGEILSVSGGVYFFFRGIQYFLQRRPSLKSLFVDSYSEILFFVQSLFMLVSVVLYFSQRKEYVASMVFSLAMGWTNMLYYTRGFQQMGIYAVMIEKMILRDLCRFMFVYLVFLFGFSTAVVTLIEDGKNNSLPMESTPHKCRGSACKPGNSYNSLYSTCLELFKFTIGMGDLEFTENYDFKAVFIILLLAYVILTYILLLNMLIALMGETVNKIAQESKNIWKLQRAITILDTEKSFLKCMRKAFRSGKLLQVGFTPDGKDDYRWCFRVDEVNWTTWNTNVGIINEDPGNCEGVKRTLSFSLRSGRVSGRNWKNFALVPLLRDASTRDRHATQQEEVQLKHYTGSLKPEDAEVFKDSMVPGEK
Test [2] has as its target T1, Vanilloid receptor (Rattus norvegicus) (UniProt Q9ERZ8+Q9WUD2+O35433). The test is described as follows: Cation influx relative to capsaicin (CAP) in cultured neonatal rat dorsal root ganglia (++ = 10xCAP). It counts as functional.
The target of test [3] is T1, Vanilloid receptor (Rattus norvegicus). The test is described as follows: Cation influx relative to capsaicin (CAP) in cultured neonatal rat dorsal root ganglia (+ = similar to CAP). It is filed as functional.
Test [4] shares this target. The experiment in a line: Cation influx relative to capsaicin (CAP) in cultured neonatal rat dorsal root ganglia (No response). It is filed as functional.
For test [5] the target is unchanged. The test is described as follows: Cation influx relative to capsaicin (CAP) in cultured neonatal rat dorsal root ganglia (W = Weaker than CAP). It is filed as functional.
For test [6] the target is unchanged.
Description: Cation influx relative to capsaicin (CAP) in cultured neonatal rat dorsal root ganglia (+++ = 100xCAP)

T1 sequence (O35433 whole entry, looked up): as the sequence (O35433 whole entry) above
T1 sequence (Q9ERZ8 whole entry, looked up): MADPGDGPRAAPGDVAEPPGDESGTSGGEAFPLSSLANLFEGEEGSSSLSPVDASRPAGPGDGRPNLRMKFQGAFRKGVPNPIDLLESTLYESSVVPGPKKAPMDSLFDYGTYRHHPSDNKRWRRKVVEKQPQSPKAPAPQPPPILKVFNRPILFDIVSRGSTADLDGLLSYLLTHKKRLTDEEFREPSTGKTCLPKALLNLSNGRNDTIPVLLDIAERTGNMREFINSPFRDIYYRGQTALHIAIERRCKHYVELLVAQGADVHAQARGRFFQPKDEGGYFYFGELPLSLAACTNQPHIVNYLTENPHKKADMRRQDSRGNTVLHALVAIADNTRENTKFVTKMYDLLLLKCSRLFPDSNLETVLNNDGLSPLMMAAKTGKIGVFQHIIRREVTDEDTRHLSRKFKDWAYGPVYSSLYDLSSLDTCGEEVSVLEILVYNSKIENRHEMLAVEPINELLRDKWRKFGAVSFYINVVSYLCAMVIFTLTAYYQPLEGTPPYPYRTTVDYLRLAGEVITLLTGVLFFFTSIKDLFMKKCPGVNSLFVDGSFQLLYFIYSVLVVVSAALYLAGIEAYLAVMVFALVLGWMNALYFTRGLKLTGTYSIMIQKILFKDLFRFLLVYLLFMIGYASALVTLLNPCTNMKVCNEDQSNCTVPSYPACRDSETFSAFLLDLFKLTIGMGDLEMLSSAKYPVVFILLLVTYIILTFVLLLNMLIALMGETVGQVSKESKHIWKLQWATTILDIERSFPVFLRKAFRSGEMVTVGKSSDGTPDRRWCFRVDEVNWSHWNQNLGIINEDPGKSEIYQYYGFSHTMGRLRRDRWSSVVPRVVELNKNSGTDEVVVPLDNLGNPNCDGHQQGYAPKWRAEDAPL
T1 sequence (Q9WUD2 whole entry, looked up): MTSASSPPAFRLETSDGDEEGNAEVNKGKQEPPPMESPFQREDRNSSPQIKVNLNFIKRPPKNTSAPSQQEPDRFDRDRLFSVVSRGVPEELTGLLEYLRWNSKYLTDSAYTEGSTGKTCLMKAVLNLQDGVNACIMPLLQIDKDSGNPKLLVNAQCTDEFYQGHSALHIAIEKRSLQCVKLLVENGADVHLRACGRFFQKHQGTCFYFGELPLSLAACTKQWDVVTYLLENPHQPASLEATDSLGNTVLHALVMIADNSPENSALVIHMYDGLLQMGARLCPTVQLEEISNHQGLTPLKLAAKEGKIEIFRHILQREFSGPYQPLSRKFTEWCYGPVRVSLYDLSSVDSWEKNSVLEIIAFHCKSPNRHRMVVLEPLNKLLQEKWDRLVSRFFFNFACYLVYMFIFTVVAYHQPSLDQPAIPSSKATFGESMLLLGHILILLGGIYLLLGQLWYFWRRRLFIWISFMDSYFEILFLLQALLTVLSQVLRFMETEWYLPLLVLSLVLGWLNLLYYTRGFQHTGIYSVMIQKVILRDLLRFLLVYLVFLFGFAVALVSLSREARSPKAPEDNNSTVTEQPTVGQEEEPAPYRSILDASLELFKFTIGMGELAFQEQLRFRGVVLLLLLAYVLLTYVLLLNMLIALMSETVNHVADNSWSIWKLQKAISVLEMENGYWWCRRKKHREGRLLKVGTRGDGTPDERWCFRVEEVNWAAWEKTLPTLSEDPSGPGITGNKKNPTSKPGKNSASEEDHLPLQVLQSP

As for `COc1cc(CC(=O)NCC(CCc2ccccc2)COC(=O)C(C)(C)C)ccc1O` (stereo unspecified), the negative-log Ki (pKi) in test [1] is 6.53. The Cation influx result in test [2] was “Active”.
In turn, `COc1cc(CC(=O)NCCCc2ccc(C)c(C)c2)ccc1OCCN` [DAVASAICIN] showed a pKi in test [1] of 5.85. Moreover, in test [3], the Cation influx result was “Active”.
On to `COc1cc(CC(=O)OCC(COC(C)=O)Cc2ccccc2)ccc1O` (stereo unspecified), for which, in test [1], the pKi is less than 4.00. The Cation influx entry in test [4] is “inactive”.
For the compound `COc1cc(CC(=O)NCC(COC(=O)C(C)(C)C)Cc2ccccc2)ccc1O` (stereo unspecified), the pKi in test [1] was 6.39. Also, the Cation influx entry in test [2] was “Active”.
In test [1], `COc1cc(CC(=O)NCC(/C=C/C(=O)OC(C)(C)C)Cc2ccccc2)ccc1O` (stereo unspecified) had a negative-log Ki (pKi) of 6.32. In test [2], the Cation influx result was “Active”.
In test [1], `COc1cc(CC(=O)NCC(COC(C)=O)OCc2ccccc2)ccc1O` (stereo unspecified) gave a pKi of less than 4.00. Moreover, the Cation influx entry in test [4] was “inactive”.
Compound `COc1cc(CC(=O)NCC(CCc2ccccc2)COC(C)=O)ccc1O` (stereo unspecified) showed a pKi in test [1] of 4.34. Besides, the Cation influx result in test [5] was “Partially active”.
As to `COc1cc(CC(=O)NCC(COC(C)=O)Cc2ccccc2)ccc1O` (stereo unspecified), the pKi in test [1] was 4.71. For the same compound, the Cation influx entry in test [5] was “Partially active”.
In test [1], `COc1cc(CC(=O)OCC(COC(C)=O)OCc2ccccc2)ccc1O` (stereo unspecified) had a pKi of less than 4.00. The Cation influx entry in test [4] was “inactive”.
With `COc1cc(CC(=O)OCC(COCc2ccccc2)COC(C)=O)ccc1O` (stereo unspecified), the negative-log Ki (pKi) in test [1] is less than 4.00. Further, the Cation influx result in test [4] was “inactive”.
As for `COc1cc(CC(=O)NCC(COCc2ccccc2)COC(C)=O)ccc1O` (stereo unspecified), the pKi in test [1] was 4.11. Also, the Cation influx entry in test [4] was “inactive”.
`COC(=O)/C=C/C(CNC(=O)Cc1ccc(O)c(OC)c1)Cc1ccccc1` (stereo unspecified) gave a pKi in test [1] of 4.87. In addition, the Cation influx entry in test [5] was “Partially active”.
`C=C(C)[C@]12C[C@@H](C)[C@@]34O[C@](Cc5ccccc5)(O[C@@H]1[C@@H]3C=C(COC(=O)Cc1ccc(O)c(OC)c1)C[C@]1(O)C(=O)C(C)=C[C@@H]41)O2` [RESINIFERATOXIN] showed a pKi in test [1] of 10.64. In addition, the Cation influx result in test [6] is “Active”.
As for `COc1cc(CC(=O)OC/C(=C/COCc2ccccc2)COC(C)=O)ccc1O`, in test [1], the pKi was less than 4.00. In test [4], the Cation influx result was “inactive”.
Turning to `COc1cc(CC(=O)NC/C(=C/Cc2ccccc2)COC(C)=O)ccc1O`, the pKi in test [1] is 4.53. Moreover, in test [5], the Cation influx result is “Partially active”.
In turn, `COc1cc(CC(=O)NC/C(=C\Cc2ccccc2)COC(=O)C(C)(C)C)ccc1O` gave a pKi in test [1] of 5.91. Besides, the Cation influx entry in test [2] is “Active”.
The compound `COc1cc(CC(=O)NC/C(=C\Cc2ccccc2)COC(C)=O)ccc1O` showed a pKi in test [1] of 4.89. Moreover, the Cation influx result in test [5] was “Partially active”.
In test [1], `COc1cc(CC(=O)OC/C(=C\COCc2ccccc2)COC(C)=O)ccc1O` gave a pKi of less than 4.00. The Cation influx entry in test [4] is “inactive”.

Broadly, the pKi is −log10 of the Ki, conventionally taken in molar units.
